From patent EP3262036B1, “THERAPEUTIC PYRIDAZINE COMPOUNDS AND USES THEREOF” (priority 2015, dated 2016) come the findings set out here.

Holding throughout (test): biochemical
One assay deals with BRG1 (Homo sapiens, UniProt P51532). It counts as binding. Particulars: BRG1 HTRF IC50 (µM). The source says:
IC50 measurements for inhibitors using BRG1 TR-FRET Binding Assay

The target in assay [1] is BRM (Isoform 2) Bromodomain (Homo sapiens, UniProt P51531). The text has this: IC50 measurements for inhibitors using BRM SM TR-FRET Binding Assay
For assay [2], the target named is Polybromodomain-1 BromoDomain-5 (PB1-BD5) (Homo sapiens, UniProt Q86U86). The source says:
IC50 measurements for inhibitors using Polybromodomain-1 BromoDomain-5 (PB1-BD5) SM TR-FRET Binding Assay

Sequence of BRG1 (P51532 1448-1575): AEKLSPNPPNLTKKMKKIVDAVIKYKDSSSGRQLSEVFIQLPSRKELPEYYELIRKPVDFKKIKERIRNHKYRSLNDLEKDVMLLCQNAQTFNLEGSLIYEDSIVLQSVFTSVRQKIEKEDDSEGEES
Sequence of Polybromodomain-1 BromoDomain-5 (PB1-BD5) (Q86U86 645-766): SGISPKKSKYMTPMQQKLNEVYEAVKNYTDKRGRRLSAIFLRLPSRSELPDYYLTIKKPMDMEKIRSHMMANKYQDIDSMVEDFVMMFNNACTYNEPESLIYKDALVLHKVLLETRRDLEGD
Sequence of BRM (Isoform 2) Bromodomain (P51531 1377-1486 isoform P51531-2): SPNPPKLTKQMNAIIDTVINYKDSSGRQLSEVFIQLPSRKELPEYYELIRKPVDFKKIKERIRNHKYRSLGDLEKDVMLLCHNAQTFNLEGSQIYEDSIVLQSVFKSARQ

As to `CNc1ccc(-c2ccccc2O)nn1` [Example 204, 2-(6-(methylamino)pyridazin-3-yl)phenol], the values for the IC50 (at BRG1; in assay [1]; in assay [2]) were 0.893 µM, 1040 nM and 349 nM, respectively.

Regarding `CC(Oc1cc(-c2ccccc2O)nnc1N)C1CCOCC1` (stereo not drawn) [Example 168, 2-(6-amino-5-(1-(tetrahydro-2H-pyran-4-yl)ethoxy)pyridazin-3-yl)phenol], the half-inhibitory concentration (IC50) on BRG1 is 0.169 µM; in assay [1], 197 nM; in assay [2] it was 113 nM.
